Experimental data reported in US9301999B2 (priority 2009, dated 2016).
Values joined by “and” are separate entries in the source; they are usually repeats but may differ in a detail not shown here. Identical values can stand only once. “Also recorded” adds a separate entry of the source. Where no end group is shown, it is not given here.

Tests used:
MC/9 mast cells = assay type: cell-based, murine; parameters: MCD10: concentration of peptide necessary to induce degranulation of 10% of mast cells: unit not given here; details: for EC50: read-out: MCD50: concentration of peptide necessary to induce degranulation of 50% of mast cells
anti-WNV IgG = assay type: in vivo, Female BALB/c mice; details: nasal, days 0, 7 and 21, WNV antigen 1 μg + 0.25 or 1.25 nmoles peptide; for Anti-WNV IgG titers in sera on day 28, versus antigen alone: ANOVA p<0.05; for anti-WNV IgG titers, difference versus mice that received MP7: serum day 28
anti-rPA IgG [1] = test system: anti-rPA IgG; parameters: species or system female C3H mice; details: mouse, in vivo
anti-rPA serum IgG = test system: anti-rPA serum IgG; parameters: species or system C3H/HeN female mice; details: mouse, in vivo
anthrax lethal toxin = test system: anthrax lethal toxin; parameters: species or system C3H/HeN female mice; details: mouse, in vivo
anti-rPA IgG [2] = test system: anti-rPA IgG; parameters: species or system female C3H/HeN mice; details: mouse, in vivo
anti-PA IgG = test system: anti-PA IgG; parameters: species or system Female C3H/HeN mice; details: mouse, in vivo

Substance: INLKALAALAKIIL [MP-12I, I N L K A L A A L A K I I L]
- MCD10: concentration of peptide necessary to induce degranulation of 10% of mast cells (MC/9 mast cells): 2.32
- EC50 (MC/9 mast cells): 12 µM
- Anti-WNV IgG titers in sera on day 28, versus antigen alone (anti-WNV IgG): significantly greater
- anti-WNV IgG titers, difference versus mice that received MP7 (anti-WNV IgG): no significant difference

Substance: I N L K A L A A L A K K C L (INLKALAALAKKCL) [MP-13C]
- MCD10: concentration of peptide necessary to induce degranulation of 10% of mast cells (MC/9 mast cells): 17.27

Substance: WQWRWWWWWWRWWW-NH2 [Duke Mast I]
- Tukey's Multiple Comparison Test versus CT, Significant? P < 0.05? (anti-rPA IgG [1]): No
- Tukey's Multiple Comparison Test versus rPA, Significant? P < 0.05? (anti-rPA IgG [1]): Yes
- adjuvant activity: serum anti-rPA IgG titers compared to rPA alone (anti-rPA IgG [1]): statistically significant adjuvant activity
- % MC/9 Degranulation (MC/9 mast cells): 30.50%

Substance: INLKALAALAKYIL [MP-12Y, I N L K A L A A L A K Y I L]
- MCD10: concentration of peptide necessary to induce degranulation of 10% of mast cells (MC/9 mast cells): 4.09
- EC50 (MC/9 mast cells): 11.1 µM

Substance: INLKALAALAKALL [Mastoparan 7, INLKALAALAKALL—NH2, reference compound]
- serum anti-PA IgG geometric means titers (GMT), adjuvant activity (anti-rPA serum IgG): significantly increased
- lethal toxin neutralizing antibody response in serum (anthrax lethal toxin): neutralized anthrax lethal toxin; also recorded: significantly increased versus all other groups
- % MC/9 Degranulation (MC/9 mast cells): 50.25% and 80.20%
- % Mast Cell Degranulation (MC/9 mast cells): 72.33% and 54.35% and 39.12%
- MCD10: concentration of peptide necessary to induce degranulation of 10% of mast cells (MC/9 mast cells): 6.31
- mast cell degranulation (β-hexosaminidase released into the culture medium) (MC/9 mast cells): induced mast cell degranulation
- EC50 (MC/9 mast cells): 18.1 µM
- Anti-WNV IgG titers in sera on day 28, versus antigen alone (anti-WNV IgG): significantly greater
- serum anti-rPA IgG titers, difference between the -OH and -NH2 forms (anti-rPA IgG [2]): no significant difference

Substance: I N L K A L A A L A K F I L [MP-12F-Ac-NH2]
- % Mast Cell Degranulation (MC/9 mast cells): 87.65% and 83.36% and 67.41%

Substance: I N L K A L A A L A K I I L [MP-12I-Ac]
- % Mast Cell Degranulation (MC/9 mast cells): 0%

Substance: I N L K A L A A L A K L I L [MP-12L-Ac]
- % Mast Cell Degranulation (MC/9 mast cells): 1.07%

Substance: I N L K A L A A L A K I I L [MP-12I-NH2]
- % Mast Cell Degranulation (MC/9 mast cells): 81.66% and 70.13% and 49.9%

Substance: I N L K A L A A L A K K M L (INLKALAALAKKML) [MP-13M]
- MCD10: concentration of peptide necessary to induce degranulation of 10% of mast cells (MC/9 mast cells): 64.54

Substance: INLKALAALAKMIL [MP-12M, I N L K A L A A L A K M I L]
- MCD10: concentration of peptide necessary to induce degranulation of 10% of mast cells (MC/9 mast cells): 2.96
- EC50 (MC/9 mast cells): 11.3 µM

Substance: INLKALAALAKALLGGGINLKALAALAKALL-NH2 [MP7-2XB]
- % MC/9 Degranulation (MC/9 mast cells): 40.49% and 56.90%

Substance: I N L K A L A A L A K K W L (INLKALAALAKKWL) [MP-13W]
- MCD10: concentration of peptide necessary to induce degranulation of 10% of mast cells (MC/9 mast cells): 22.76

Substance: I N L K A L A A L A K S I L (INLKALAALAKSIL) [MP-12S]
- MCD10: concentration of peptide necessary to induce degranulation of 10% of mast cells (MC/9 mast cells): 22.50

Substance: INLKALAALAKWIL [MP-12W, I N L K A L A A L A K W I L]
- MCD10: concentration of peptide necessary to induce degranulation of 10% of mast cells (MC/9 mast cells): 1.47
- EC50 (MC/9 mast cells): 4.71 µM
- Anti-WNV IgG titers in sera on day 28, versus antigen alone (anti-WNV IgG): significantly greater
- anti-WNV IgG titers, difference versus mice that received MP7 (anti-WNV IgG): no significant difference

Substance: KLKLLLLLKLK-OH
- adjuvant activity as determined by serum anti-PA IgG endpoint titers (anti-PA IgG): did not provide adjuvant activity

Substance: I N L K A W A A L A K K I L (INLKAWAALAKKIL) [MP-6W]
- MCD10: concentration of peptide necessary to induce degranulation of 10% of mast cells (MC/9 mast cells): 24.99

Substance: I N L K A L A A L A K F I L [MP-12F-OH]
- % Mast Cell Degranulation (MC/9 mast cells): 38.07%

Substance: I N L K A L A A L A K I I L [MP-12I-OH]
- % Mast Cell Degranulation (MC/9 mast cells): 0%

Substance: I N L K A L A A L A K L I L [MP-12L-OH]
- % Mast Cell Degranulation (MC/9 mast cells): 21.36%

Substance: INLKALAALAKKIL [Mastoparan-OH]
- serum anti-rPA IgG titer versus mice immunized with rPA alone (anti-rPA IgG [2]): not significantly different
- adjuvant activity as determined by serum anti-PA IgG endpoint titers (anti-PA IgG): provided adjuvant activity

Substance: I N L K A L A A L A K W I L [MP-12W-OH]
- % Mast Cell Degranulation (MC/9 mast cells): 23.83%

Substance: WRWRWWWWWWRRWW-NH2 [Duke Mast F]
- Tukey's Multiple Comparison Test versus CT, Significant? P < 0.05? (anti-rPA IgG [1]): No
- Tukey's Multiple Comparison Test versus Duke Mast I NH2, Significant? P < 0.05? (anti-rPA IgG [1]): No
- Tukey's Multiple Comparison Test versus rPA, Significant? P < 0.05? (anti-rPA IgG [1]): Yes
- adjuvant activity: serum anti-rPA IgG titers compared to rPA alone (anti-rPA IgG [1]): statistically significant adjuvant activity
- % MC/9 Degranulation (MC/9 mast cells): 27.80% and 40.07%

Substance: I N L K A L A A L A K W I L [MP-12W-Ac]
- % Mast Cell Degranulation (MC/9 mast cells): 38.76%

Substance: INLKAKAALAKKLL-OH [Mastoparan 17]
- serum anti-PA IgG geometric means titers (GMT), adjuvant activity (anti-rPA serum IgG): did not provide detectable adjuvant activity
- lethal toxin neutralizing antibody response in serum (anthrax lethal toxin): did not induce lethal toxin neutralizing responses greater than those detected in mice immunized with rPA alone
- % MC/9 Degranulation (MC/9 mast cells): 0%
- adjuvant activity as determined by serum anti-PA IgG endpoint titers (anti-PA IgG): did not provide adjuvant activity

Substance: I N L K A L A A L A K L I L [MP-12L-NH2]
- % Mast Cell Degranulation (MC/9 mast cells): 83.36% and 67.37% and 51.29%

Substance: INLKALAALAKLIL [MP-12L, I N L K A L A A L A K L I L]
- MCD10: concentration of peptide necessary to induce degranulation of 10% of mast cells (MC/9 mast cells): 2.30
- EC50 (MC/9 mast cells): 5.19 µM
- Anti-WNV IgG titers in sera on day 28, versus antigen alone (anti-WNV IgG): significantly greater
- anti-WNV IgG titers, difference versus mice that received MP7 (anti-WNV IgG): no significant difference
